According to patent US11925678B2, “Methods for diagnosing and treating Alzheimer's disease” (Cava Healthcare Inc., priority 2011, dated 2024):
Where two headings read alike, the source gives them in different places.

Experiments:
animal models of AD = settings: cited from earlier work
endothelial cells = settings: cited from earlier work
Tg2576 (Tg/+) mice = assay: Microvessel density (MVD) by CD105 staining in immunized mice; assay type: in vivo, mouse; settings: for microvessel density (MVD), ratio of TFA to total area of imaged field: CD105 staining, mean±SEM
Description: (§1) Injections were performed i.p.
Microvessel density (MVD) was quantified by confocal microscopy using the methods developed by Guo et al. (Angiogenesis 4, 187-191 with minor modifications). Using CD105 as a marker of angiogenic cerebrovasculature (Masliah et al. (2005) Neurology 64, 129-131), images of optimal fluorescent intensity were acquired and analyzed using the Zeiss LSM510 Meta software. Areas within the brain section containing high density (“hotspots”) (Bombois et al. (2007) Arch Neurol 64, 583-587) CD105 staining were imaged using the 20×/0.45 N-Achroplan objective using the confocal imaging parameters mentioned previously. The total fluorescence area (TFA) in μm^2 was integrated above background, by the software, for each hotspot. The average TFA from four different hotspots per mouse was quantified. The TFA was used as a numerical representation of the total microvessels stained by the CD105 antibody. The MVD of the imaged field was expressed as a ratio of the TFA to the total area of the image.
Microvessel density quantification: Microvessel density was quantified by confocal microscopy using the methods described previously Biron et al., PLoS ONE 6, e23789 (2011)). Using CD105 as a marker of angiogenic cerebrovasculature (Holley et al. Neurosci Lett 470, 65-70 (2010)), images of optimal fluorescent intensity were acquired and analyzed using the Zeiss LSM510 Meta software. Areas within the brain section containing high density (“hotspots”) CD105 staining were imaged using the 20×/0.45 N-Achroplan objective using the confocal imaging parameters mentioned previously. The total fluorescence area (TFA) in μm^2 was integrated above background, by the software, for each hotspot. The average TFA from four different hotspots per mouse was quantified. The TFA was used as a numerical representation of the total microvessels stained by the CD105 antibody. The microvascular density of the imaged field was expressed as a ratio of the TFA to the total area of the image.

Tg2576 mice [1] = assay: Apoptosis by activated caspase-3 staining in immunized mice; assay type: in vivo, mouse
Description: as §1
An anti-activated caspase-3 antibody was used as a marker of apoptosis FIG. 9. […] PBS immunized Tg2576 mice, both preventative and therapeutic, had significant activated caspase-3 staining within the FIG. 9a cortex and hippocampus (not shown) that tended to surround probable abeta plaques. […] The overall density of activated caspase-3 staining in these mice was noted to be lower than the Tg2576 treated with abeta. […] Cortex activated caspase-3 staining appear similar in the abeta immunized Tg2576 to the wild-type variants.

[2] = tested on: Tg2576 (Tg/+) and wild-type (+/+) mice; settings: for tight junction abnormalities compared to PBS immunized controls (qualitative) / TJ expression in microvessels/capillaries (qualitative) / incidence of TJ disruption (percentage of blood vessels with abnormal TJ morphology) / TJ expression in larger vessels (qualitative): Tg2576 mice; for tight junction abnormalities compared to PBS immunized controls (qualitative): cortex and hippocampus; for TJ expression in microvessels/capillaries (qualitative): preventative and therapeutic immunization; for incidence of TJ disruption (percentage of blood vessels with abnormal TJ morphology): mean±SEM; for TJ expression in larger vessels (qualitative): preventative or therapeutic immunization
Description: (§2) Briefly, two separate vaccination strategies were carried out, therapeutic and preventative. Prior to immunization, mice were bled from the saphenous vein and serum collected. In the preventative approach, mice were vaccinated beginning at 6 weeks of age and sacrificed at 12 months. Mice used in the therapeutic strategy were vaccinated beginning at 11 months of age and sacrificed at 15 months. Abeta peptide was freshly prepared from lyophilized powder for each set of injections. For immunizations, 2 mg of abeta (human abeta1-40, Bachem) was added to 0.9 mL of deionized water and thoroughly mixed. Then 100 μL of 10×PBS was added to obtain a final 1×PBS concentration. The solution was vortexed and placed at 37° C. overnight until use the next day. Abeta1-40 (100 μg antigen per injection) or PBS (control) was mixed 1:1 (v/v) with complete Freund's adjuvant (CFA) for the first immunization. This was followed by a boost with abeta1-40 (100 μg) or PBS mixed 1:1 (v/v) with incomplete Freund's adjuvant (ICFA) at two weeks and monthly thereafter. From the fifth immunization onward, straight PBS or abeta were injected. Injections were performed i.p.
Dewaxed paraffin sections underwent antigen retrieval using a conventional stovetop pressure cooker using 20 mM Tris with 0.7 mM EDTA buffer (pH 9.0) at full steam for 2 minutes. Cooled slides were then incubated in blocking buffer (25% normal goat serum; 3% BSA; 0.3% Triton X-100, Sigma) for 1 hour at room temperature. Primary antibodies used included rabbit anti-ZO-1 (1:200, Invitrogen), mouse anti-ZO-1 (1:200, Invitrogen), rabbit anti-occludin (1:200, Invitrogen), rabbit anti-activated caspase-3 (1:1000, Imgenex), and mouse anti-human CD105 (1:20, DAKO). Primary antibody staining was performed overnight at 4C in staining buffer (10% normal goat serum; 3% BSA; 0.3% Triton X-100). Normal donkey serum was used when staining with goat primary antibodies. Secondary antibodies used were complimentary to the species of the primary conjugated with either Alexa Fluor dyes 488 or 568 (1:500, Invitrogen). Secondary antibody staining was performed at room temperature for 1 hour in staining buffer. TOTO-3 (1:10000, Invitrogen) was used for nuclear counterstaining. Sections were washed in PBS with 0.1% Tween-20 (Sigma) three times for 5 minutes each between staining steps. Stained sections were coverslipped using Fluoromount-G (Southern Biotech) and allowed to air dry in the dark overnight.
Brain sections were analyzed from paraffin blocks from every fifth section. Images taken on a Zeiss LSM510 Meta (Zeiss, Germany), were acquired with 16 slices, averaged four times, through the Z-plane using a 40×/1.3 oil-immersion Plan-Neofluor objective. The composite projected image was imported into Adobe Photoshop, at 600 dpi, and optimized for contrast and brightness. Quantitative analysis of tight junction morphology was analyzed according the methodology developed by Plumb et al. (Brain Pathol 12, 154-169). Confocal data sets represented approximately 100 cerebral blood vessels from both young and aged Tg2576 and littermate controls in the frontal cortex and hippocampus. Individual vessels were scored as either normal (1) or abnormal (0) for ZO-1 expression. Normal ZO-1 expression was judged as strong, continuous, intense and linear staining. In contrast, abnormal ZO-1 expression was judged as weak, punctate and/or discontinuous staining. […] To minimize the recording of incomplete or undulating vessels as abnormal, due to observed “gaps” in ZO-1 staining, evidence of vessel continuity was sought in the images. For example, the presence of stained nuclei (with TOTO-3) or punctate or diffuse ZO-1 remnants was used to localize the position of abnormal gaps along the vessel tract.

[3] = tested on: Tg2576 and wild-type mice
Description: as §2
Tg2576 and wild-type mice immunized, preventatively or therapeutically, with either abeta or PBS were assessed for cerebrovascular leakage and TJ abnormalities by confocal microscopy. Mouse albumin was used as a marker for vascular leakage and was visualized as diffuse gradient staining emanating away from vessels FIG. 8b (white arrowhead).

Tg2576 mice [4] = tested on: Tg2576 mice
Description: Briefly, two separate vaccination strategies were carried out, therapeutic and preventative. […] In the preventative approach, mice were vaccinated beginning at 6 weeks of age and sacrificed at 12 months. Mice used in the therapeutic strategy were vaccinated beginning at 11 months of age and sacrificed at 15 months. Abeta peptide was freshly prepared from lyophilized powder for each set of injections. For immunizations, 2 mg of abeta (human abeta1-40, Bachem) was added to 0.9 mL of deionized water and thoroughly mixed. Then 100 μL of 10×PBS was added to obtain a final 1×PBS concentration. The solution was vortexed and placed at 37° C. overnight until use the next day. Abeta1-40 (100 μg antigen per injection) or PBS (control) was mixed 1:1 (v/v) with complete Freund's adjuvant (CFA) for the first immunization. This was followed by a boost with abeta1-40 (100 μg) or PBS mixed 1:1 (v/v) with incomplete Freund's adjuvant (ICFA) at two weeks and monthly thereafter. From the fifth immunization onward, straight PBS or abeta were injected. Injections were performed i.p.
Aβ was imaged with a Zeiss LSM 710 Laser Scanning.

[5] = mouse, in vivo
Description: Mice were terminally anesthetized with ketamine/xylazine (100 mg/kg; 10 mg/kg) and perfused with PBS for 5 minutes. Brains were then rapidly excised, olfactory bulbs and cerebellum removed, weighed and post-fixed in 4% paraformaldehyde for four days at 4° C. The brains were then imbedded in paraffin and sectioned serially at 5 μm. […] Average brain weights were compared amongst the immunized mice by comparing brain to body mass ratios.

Tg2576 mice [6] = settings: cited from earlier work
[7] = Tg2576 mice, preventative and therapeutic

C=C(c1ccc(C(=O)O)cc1)c1cc2c(cc1C)C(C)(C)CCC2(C)C [bexarotene]
memory performance (animal models of AD): increase memory performance | plaque burden (animal models of AD): reduce plaque burden | angiogenesis (proliferation, adhesion, invasion and migration of endothelial cells) (endothelial cells): inhibits angiogenesis

human abeta1-40
microvessel density (MVD), ratio of TFA to total area of imaged field (Tg2576 (Tg/+) mice; Tg2576 mice immunized preventatively): 0.1972±0.0075 | microvessel density (MVD), ratio of TFA to total area of imaged field (Tg2576 (Tg/+) mice; Tg2576 mice immunized therapeutically (after disease onset)): 0.2180±0.0130 | microvascular density compared to PBS controls (qualitative) (Tg2576 (Tg/+) mice; [7]): reduced microvascular density | distribution of activated caspase-3 staining (Tg2576 mice [1]; Tg2576 mice): hippocampal restricted caspase-3 staining | activated caspase-3 staining (qualitative, overall) (Tg2576 mice [1]; Tg2576 mice (FIG. 9)): reduced activated caspase-3 staining | activated caspase-3 staining in cortex (Tg2576 mice [1]; [7]): limited caspase-3 staining | percentage of abnormal vascular TJ expression ([2]; Example 3, Tg/+ mice immunized preventatively from 6 weeks of age, neocortex and hippocampus): ~10% | percentage of abnormal vascular TJ expression (TJ pathology) ([2]; Example 3, Tg/+ mice immunized therapeutically at 11 months of age, neocortex and hippocampus): ~10% | tight junction abnormalities compared to PBS immunized controls (qualitative) [2]: reduced tight junction abnormalities | tight junction abnormalities compared to PBS immunized controls (qualitative) ([2]; listed as Abeta): markedly reduced TJ pathology | tight junction abnormalities compared to PBS immunized controls (qualitative) ([2]; listed as Aβ): reduced tight junction abnormalities | TJ expression in microvessels/capillaries (qualitative) [2]: normal TJs | TJ expression in microvessels/capillaries (qualitative) ([2]; listed as Aβ): normal ZO-1 expression in the capillaries | incidence of TJ disruption (percentage of blood vessels with abnormal TJ morphology) ([2]; preventative immunization (6 weeks to 12 months), cortex): 11.33±2.40% | incidence of TJ disruption (percentage of blood vessels with abnormal TJ morphology) ([2]; preventative immunization, hippocampus): 11.91±1.73% | TJ expression in larger vessels (qualitative) [2]: larger proportion of abnormal TJ expression | TJ expression in larger vessels (qualitative) ([2]; listed as Aβ): some abnormal TJ pathology mainly in larger vessels | incidence of TJ disruption (percentage of blood vessels with abnormal TJ morphology) ([2]; therapeutic immunization (11 to 15 months), cortex): 10.40±0.81% | incidence of TJ disruption (percentage of blood vessels with abnormal TJ morphology) ([2]; therapeutic immunization, hippocampus): 11.00±2.26% | overall vascular leakage (qualitative) ([3]; Tg2576 mice, preventatively immunized (FIG. 8)): overall reduced vascular leakage | vascular leakage in larger vessels (mouse albumin) ([3]; mouse, in vivo): periodic vascular leakage | vascular leakage in wild-type mice ([3]; mouse, in vivo): no vascular leakage | abeta deposition in cerebral capillaries (Tg2576 mice [4]; Tg2576 mice): No abeta deposition | parenchymal Aβ plaques (Tg2576 mice [4]; Tg/+ mice preventatively immunized): complete elimination | Aβ plaque pathology (Tg2576 mice [4]; Tg/+ mice therapeutically treated): dramatic decrease | Aβ deposits compared to Tg/+, PBS (qualitative) (Tg2576 mice [4]; Tg/+ mice, therapeutic or preventative (FIG. 14)): general reduction of Aβ deposits | vascular abeta deposition in larger vessels (Tg2576 mice [4]; mouse, in vivo): Mild vascular abeta deposition | average brain to body weight ratio (difference between groups) [5]: did not reach significance | plaque burdens and microgliosis (Tg2576 mice [6]; Tg2576 mice): significantly reduced | immune response: anti-abeta antibody titres (Tg2576 mice [6]; mice immunized preventatively or therapeutically): increase in anti-abeta antibody titres | global integrity of the BBB (Tg2576 mice [6]; post-abeta immunized Tg2576 mice): improves significantly
